This is an account of results in patent US20110014296A1, “Drug Delivery Nanodevice, its Preparation Method and Uses Thereof” (NATIONAL CHIAO TUNG UNIVERSITY, priority 2009, published 2011).

In the test the test system is spontaneous SWDs of Long-Evans rats. In words: In vivo anti-epileptic therapy, spontaneous spike-wave discharges (SWDs). The settings on record: before and after application, ESM 28 mg/Kg i.p., ESM-SAIO and ESM-device 40 mg/Kg (FIG. 12). More on the design: species or system rat. As for the experimental part: Adult male Long-Evans and Wistar rats were used in this study. All rats were kept in a sound-attenuated room under a 12:12 hr light-dark cycle (07:00-19:00 lights on) with food and water provided ad libitum. The experimental procedures were reviewed and approved by the Institutional Animal Care and Use Committee. Briefly, the recording electrodes were implanted under pentobarbital anesthesia (60 mg/kg, i.p.). Subsequently, the rat was placed in a standard stereotaxic apparatus. In total, six stainless steel screws were driven bilaterally into the skull overlying the frontal (A +2.0, L 2.0 with reference to the bregma) and occipital (A −6.0, L 2.0) regions of the cortex to record cortical field potentials. A ground electrode was implanted 2 mm caudal to lambda. Dental cement was applied to fasten the connection socket to the surface of the skull. Following suturing to complete the surgery, animals were given an antibiotic (chlortetracycline) and housed individually in cages for recovery. […] To confirm the cortical focus theory of SWDs, a pharmacological epileptic rat model, low-dose pentylenetetrazol (PTZ) (20 mg/kg, i.p.) in Wistar rats, was also used. […] In this experiment, 1-hour spontaneous brain activity before the treatment (baseline) and another 1-hour spontaneous brain activity 30 minutes after the treatment were recorded, respectively. […]

Each structure is given as a SMILES string.

Take `CCC1(C)CC(=O)NC1=O` (centres unmarked) [ESM, ethosuximide]: the SWD number result was “significantly reduced” and the “total SWD duration” value is given as “significantly reduced”.
